What all share (assay): Cell growth inhibition by SRB method
Holding throughout (format): cell-based, human
(Sulforhodamine B stains cellular protein and so reports cell mass.)

In one assay the test system is LNCaP. Particulars: Homo sapiens, LNCaP; 72 hrs exposure, SRB. An excerpt:
(§1) Six human cancer cell lines have been used to evaluate effects of the compounds on proliferation of cancer cells. These cell lines include HCC827-P (or HCC827 parent cells), human non-small lung cancer cells, Parent NSCLC HCC827 cell line (which harbors EGFR gene amplification, Exon 19 (E19) deletion, and Exon 21 mutation (Wang, Ramakrishnan et al. 2010), and is an EGFRi sensitive cell line (Kim, Kim et al. 2010)); HCC827-TR16 (Tarceva-resistant HCC727 cell line), HCC827-OR16 (AZD9291-resistant HCC727 cell line), LNCaP (human prostate cancer cells—a hormonal-therapy sensitive cell line (Wang, Liu et al. 1997)); 22RV1 (human prostate cancer cells—a hormonal-therapy resistant cell line (Sramkoski, Pretlow et al. 1999)); and ACHN (human renal adenocarcinoma cells (Park, Jung et al. 2003)). LNCaP cells and 22RV1 cells were purchased from the American Type Culture Collection (Rockville, Md.) and others were gifts of friends.
(§2) All cell lines were maintained in RPMI-1640 (GIBCO, Gaithersburg, Md.) with 10% heat-inactivated bovine serum (FBS) (Wang, Ossowski et al. 2004).
(§3) Sulforhodamine B (SRB) was used to estimate cell growth as described previously (Skehan, Storeng et al. 1990). Briefly, cells grown exponentially were aliquoted into 96-well plates at a density of 2,500 to 5,000 cells/200 μl per well in RPMI 1640 medium containing 10% FBS. After twenty-four hours, the cells were exposed to indicated concentrations of tested compounds for 72 hrs or otherwise as indicated. The cells were then fixed with 10% trichloride acetic acid for 2 h at 4° C. The 10% trichloride acetic acid was removed, and the dishes were washed 5 times with tape water, and air-dried. The fixed and dried cells were then stained with 0.4% SRB in 1% acetic acid for 25 min, and the dishes were washed 5 times with 1% acetic acid and air-dried overnight. 200 μl of 10 mM of Tris buffer (pH 10.0) were added, and the dishes were rotated to completely dissolve the color. Absorbance at 570 nm, with a reference wavelength 690 nm, was measured on a 96-well microplate reader (SPECTRO Star^Nano, BMG Labtech). Mean, standard deviation (SD) and the percent of growth inhibition at each concentration point of the treatment were calculated. The percent of growth inhibition as defined as (1−T/C)×100 where T is the mean of the absorbance at 570 nm from the treatment, and C from control (drug vehicle only). IC50 was calculated using Sigma-plot software by regression of growth-concentration curve from each drug treatment.

A further assay relates to ACHN. Particulars: Homo sapiens, ACHN, 72 hrs exposure.
From the text: as §1, §2, §3

The subject of a further assay is 22RV1. The settings on record: Homo sapiens, 22Rv1, 72 h, 72 hrs exposure, SRB.
From the text: as §1, §2, §3

For the next assay, the system named is HCC827OR16. The settings on record: Homo sapiens, AZD9291-resistant line, 72 hrs exposure.
From the text: as §1
(§4) To evaluate activities of new compounds on growth of EGFR-inhibitor-resistant cells, two EGFRi-resistant cell lines, i.e., HCC827-TR16 and HCC827-OR16 were established using a method described by Eberlein et al. (Eberlein, Stetson et al. 2015). […] Resistant cells were collected and stabilized after 5 weeks (cycle 5). […] The resistant cells were sorted using 96-well dishes by culturing cells with density of 0.1, 1, 10, and 100 cells per well.
as §2, §3

Another assay has as its system HCC827P. The settings on record: Homo sapiens; 72 hrs exposure, SRB.
From the text: as §1, §4, §2, §3

Take `C#Cc1cccc(Nc2ncnc3cc(OCCOC)c(NC(=O)c4ccc(F)c([N+](=O)[O-])c4)cc23)c1` [Reno647, 4-Fluoro-N-[4-(3-ethynyl-phenylamino)-7-(2-methoxy-ethoxy)-quinazolin-6-yl]-3-nitro-benzamide]: the IC50 with LNCaP is 1250 nM; in the assay with ACHN, 1250 nM; in the assay on 22RV1, roughly 500 nM; in the assay on HCC827OR16 it was 380 nM; in the assay on HCC827P, 150 nM.

The term IC50 denotes the point on the concentration scale where inhibition reaches its midpoint.

(Values after US20190169134A1, “NOVEL CLASS OF QUINOLONE HETEROCYCLIC AROMATIC MOLECULES FOR CANCER TREATMENT” (RenoTarget Therapeutics, Inc., priority 2016, published 2019).)
